pEC50: −log10 of the molar value. “And” between values parts separate entries of the source, which are not always exact repeats. Equal values may be shown once. “Also recorded” adds a separate entry of the source. Read-outs that look alike come from different tables or passages of the source.
What was measured:
[1] = system: HBV virion in 2.2.15 cells; test: HBV antiviral assay in 2.2.15 cells, virion (VIR) HBV DNA; assay type: cell-based; settings: Hepatitis B virus; for pEC50: read-out: EC50 (VIR); for EC90: read-out: EC90 (VIR)
Experimental: (§4) HBV antiviral assays were conducted as previously described [Korba, B. E. et al. Antiviral Res. 77, 56-63 (2008);].

[2] = Primary HCV replicon cell assay, cytotoxicity (neutral red dye uptake); assay type: cell-based; settings: human, 3 days of treatment
Experimental: (§5) Antiviral activity of test compounds was assessed in a 3-day assay using the stably-expressing HCV replicon cell line, AVA5 (sub-genomic CONI, genotype 1b) [Korba, B. E. et al. Antiviral Res. 77, 56-63 (2008); Blight et al., Science 290, 1972-1974 (2000)] maintained as sub-confluent cultures on 96-well plates as previously described [Okuse et al., Antiviral Research 65, 23-34 (2005)]. Antiviral activity was determined by blot hybridization analysis of intracellular HCV RNA (normalized to the level of cellular B-actin RNA in each culture sample) and cytotoxicity was assessed by neutral red dye uptake after 3 days of treatment. Additional studies were performed using Huh7 cells containing another HCV replicon, H/FL-Neo, a genotype la full length construct [Blight et al., J. Virol. […] For studies involving human serum, standard culture medium (which contains 10% fetal bovine serum) and assay conditions were maintained.

[3] = Secondary HCV replicon cell assay genotype 1b, cytotoxicity (neutral red dye uptake); assay type: cell-based; settings: human
Experimental: as §5

[4] = system: HCV replicon cell line, AVA5 (sub-genomic CONI, genotype 1b); test: Primary HCV replicon cell assay, antiviral activity (intracellular HCV RNA, blot hybridization); assay type: cell-based; settings: Hepatitis C virus, Ava5, 72 h, 3-day assay; for pEC50: 2-fold depression of intracellular HCV RNA; for EC90: 10-fold depression of intracellular HCV RNA
Experimental: (§1) Antiviral activity of test compounds was assessed in a 3-day assay using the stably-expressing HCV replicon cell line, AVA5 (sub-genomic CONI, genotype 1b) [Korba, B. E. et al. Antiviral Res. 77, 56-63 (2008); Blight et al., Science 290, 1972-1974 (2000)] maintained as sub-confluent cultures on 96-well plates as previously described [Okuse et al., Antiviral Research 65, 23-34 (2005)]. Antiviral activity was determined by blot hybridization analysis of intracellular HCV RNA (normalized to the level of cellular B-actin RNA in each culture sample) and cytotoxicity was assessed by neutral red dye uptake after 3 days of treatment. Additional studies were performed using Huh7 cells containing another HCV replicon, H/FL-Neo, a genotype la full length construct [Blight et al., J. Virol. 77, 3181-3190 (2003)]. For studies involving human serum, standard culture medium (which contains 10% fetal bovine serum) and assay conditions were maintained.
(§2) EC50, EC90 and CC50 values (±standard deviations [S.D.]) were calculated by linear regression analysis using data combined from all treated cultures (Korba, B. E. et al. Antiviral Res. 77, 56-63 (2008)). […] Selectivity index (S.I.) was calculated as CC50/EC90 for HBV assays and CC50/EC50 for HCV assays.

[5] = system: HCV replicon H/FL-Neo, genotype 1a full length construct, in Huh7 cells; test: Secondary HCV replicon cell assay genotype 1a, antiviral activity; assay type: cell-based; settings: Hepatitis C virus; for pEC50: Huh-7, 2-fold depression of intracellular HCV RNA; for EC90: Huh-7, 10-fold depression of intracellular HCV RNA
Experimental: as §1, §2

[6] = Secondary HCV replicon cell assay genotype 1a, cytotoxicity (neutral red dye uptake); assay type: cell-based; settings: human
Experimental: as §5

[7] = Cytotoxicity in 2.2.15 cells (neutral red dye uptake); assay type: cell-based; settings: human, nine daily doses
Experimental: Briefly, confluent cultures of 2.2.15 cells were maintained on 96-well flat-bottomed tissue culture plates (confluence in this culture system is required for active, high levels of HBV replication equivalent to that observed in chronically-infected individuals. Cultures were treated with nine consecutive daily doses of the test compounds. HBV DNA levels were assessed by quantitative blot hybridization 24 hr. after the last treatment. Cytotoxicity was assessed by uptake of neutral red dye 24 hr. following the last treatment.

[8] = system: HCV replicon cell line, AVA5 (sub-genomic CONI, genotype 1b); test: Secondary HCV replicon cell assay genotype 1b, antiviral activity; assay type: cell-based; settings: Hepatitis C virus; for pEC50: 2-fold depression of intracellular HCV RNA; for EC90: 10-fold depression of intracellular HCV RNA
Experimental: as §1, §2

[9] = cited from earlier work
[10] = system: AVA5 HCV replicon cell line; test: Secondary HCV replicon cell assay genotype 1b, cytotoxicity (neutral red dye uptake); assay type: cell-based
Experimental: as §5

Huh 7.5 cells = test: Cytotoxicity in Huh 7.5 cells (Calcein / ViaCount assay); assay type: cell-based
Experimental: (§3) Genotype 2a antiviral assays were conducted as previously described [Broering R. et al., Gut, 59, 1111-1119 (2010)]. […] Cell viability was determined using the Calcein assay kit (Biotium, Inc. Hayward, Calif., USA). The alternate method for measuring cell cytotoxicity was via the Guava Technologies ViaCount assay (Millipore) The ViaCount Assay provides rapid and reliable determinations of viability and total cell count. It distinguishes viable and non-viable cells based on differential permeabilities of two DNA-binding dyes in the Guava ViaCount® Reagent. The nuclear dye stains only nucleated cells, while the viability dye brightly stains dying cells. This combination of dyes enables the Guava ViaCount Assay to distinguish viable, apoptotic, and dead cells. Debris is excluded from results based on negative staining with the nuclear dye.

[11] = system: Huh7 cells containing H/FL-Neo replicon; test: Secondary HCV replicon cell assay genotype 1a, cytotoxicity (neutral red dye uptake); assay type: cell-based
Experimental: as §5

[12] = system: HBV replication intermediates in 2.2.15 cells; test: HBV antiviral assay in 2.2.15 cells, replication intermediates (RI) HBV DNA; assay type: cell-based; settings: Hepatitis B virus; for pEC50: read-out: EC50 (RI)
Experimental: as §4

[13] = system: J6/JFH-1 HCV (genotype 2a) in Huh 7.5 cells; test: Infectious genotype 2a HCV cell culture assay (RT-PCR viral load); assay type: cell-based, hepatitis C virus (HCV); settings: genotype G2a; for inhibition of J6/JFH-1 HCV replication: 1 μM test concentration; for relative activity / potency versus NTZ: at 1 μM, % of NTZ
Experimental: as §3
HCV replication levels were determined by RT-PCR on RNA from cell culture supernatants. J6-infected Huh 7.5 cells were seeded in 12-well plates at a density of 2.0E5 cells/well in 1.5 mL of DMEM supplemented with 10% FBS and 1% Pen/Strep. […] A positive control of IFN-α at concentrations of 10 IU/mL and 50 IU/mL, negative control wells containing mock incubations of DMEM with 1 uL and 10 uL (the same volume of the molecular compounds at 1 uM and 10 uM, respectively) of DMSO was included to rule out nonspecific effects of DMSO on the cells, and J6-infected with only DMEM were used as negative controls. A final control group consisted of un-infected Huh 7.5 cells, plated at the same time and density as the J6-infected cells on a separate plate. 48 hours and 120 hours after incubation with thiazolides, the media was collected and frozen, cells were washed 2× with PBS, and lysed in 500 uL of lysis buffer per well. Following lysis, RNA was extracted from the cells using the RNAqueous-4PCR Kit from Ambion, and the RNA concentration determined using the Nanoprop® machine. Reverse-transcription reactions produced 1.5 μg of cDNA per sample, which was then used for rt-PCR to quantify the HCV viral load in each sample. Analysis of the rt-PCR results generated the fold increases and decreases of the HCV viral load in comparison to untreated J6 cells.

cytochrome P450 enzymes = settings: cited from earlier work
[14] = system: AVA5 HCV replicon cell line; test: Primary HCV replicon cell assay, cytotoxicity (neutral red dye uptake); assay type: cell-based; settings: 3 days of treatment
Experimental: as §5

[15] = HBV virion DNA, 2.2.15 cells, nine daily doses
[16] = AVA5 HCV replicon cells (sub-genomic CON1, genotype 1b)
[17] = AVA5 HCV replicon cells (sub-genomic CON1)

Structure (SMILES) | pEC50 [1, 15] | CC50 at 3 days [2, 16] [nM] | CC50 at 3 days [3, 17] [nM] | pEC50 [4] | EC90 [4] [nM] | pEC50 [5] | EC90 [5] [nM] | CC50 at 3 days [6] [nM] | CC50 at 9 days [7] [nM] | pEC50 [8] | EC90 [8] [nM] | cytotoxic effect in Huh 7.5 cells (Huh 7.5 cells) | inhibition of J6/JFH-1 HCV replication [13] | relative activity / potency versus NTZ [13] [%] | other results
O=C(Nc1cc(C(F)(F)F)ccc1Cl)c1ccccc1O [Compound 41, N-(2-chloro-5-(trifluoromethyl)phenyl)-2-hydroxybenzamide] | 5.43 | 330 | 790 | 8.30 | 32 | 7.26 | 244 | 680 | > 100000 | 7.35 | 177 | – | – | – | EC90 [1, 15]: 13000 nM
CC(=O)Oc1ccccc1C(=O)Nc1ncc([N+](=O)[O-])s1 [NTZ, nitazoxanide, reference compound] | 6.92 | – | – | 6.68 | 977 | 6.48 | 1100 | – | > 100000 | 6.60 | 950 | without being cytotoxic; also recorded: None of these compounds showed a cytotoxic effect | demonstrated efficacy with regards to HCV replication; also recorded: shown to inhibit J6/JFH-1HCV replication | – | detection in plasma ([9]; after oral 500 mg NTZ tablet): not detected in plasma; CC50 at 3 days [2]: 31000 nM; CC50 [10]: 35000 nM; CC50 [11]: 49000 nM; pEC50 ([12]; HBV replication intermediates, 2.2.15 cells, nine daily doses): 6.23
O=C(Nc1cccc(F)c1)c1ccccc1O [Compound 3, N-(3-fluorophenyl)-2-hydroxybenzamide] | – | > 100000 | 11000 | 6.09 | 2700 | 6.38 | 3300 | 9900 | – | 6.22 | 2600 | None of these compounds showed a cytotoxic effect | shown to inhibit J6/JFH-1HCV replication | 65 | –
COC(=O)c1ccc(NC(=O)c2ccccc2OC(C)=O)cc1 [Compound 44, methyl 4-(2-acetoxybenzamido)benzoate] | – | 4400 | 6800 | 7.24 | 461 | 6.52 | 5100 | 7500 | – | 6.46 | 4500 | None of these compounds showed a cytotoxic effect | shown to inhibit J6/JFH-1HCV replication | 53 | –
O=C(Nc1ncc([N+](=O)[O-])s1)c1ccccc1O [TIZ, tizoxanide, reference compound] | – | – | – | 6.82 | 813 | 6.64 | 1000 | 27000 | > 100000 | 6.72 | 920 | – | – | – | pEC50 [1]: 6.82; EC90 [1]: 580 nM; inhibition of cytochrome P450 enzymes (cytochrome P450 enzymes): does not inhibit; fraction of oral dose excreted in feces as TIZ ([9]; oral dose of NTZ): Approximately two-thirds; maximum serum concentration of TIZ ([9]; oral, one 500 mg NTZ tablet (Alinia) with food): approximately 10 μg/mL and ~37 μM; elimination half-life from plasma ([9]; plasma): approximately 1.5 hours; CC50 [14]: 15000 nM; CC50 at 3 days [3]: 28000 nM; pEC50 [12]: 6.34; EC90 ([12]; read-out: EC90 (RI)): 1200 nM

— US20120108592A1, “PHARMACEUTICAL COMPOSITIONS AND METHODS OF USE OF SALICYLANILIDES FOR TREATMENT OF HEPATITIS VIRUSES” (priority 2010, published 2012)
